Laboratory results published in ChEMBL document CHEMBL4138105, “LL-37-derived short antimicrobial peptide KR-12-a5 and its d-amino acid substituted analogs with cell selectivity, anti-biofilm activity, synergistic effect with conventional antibiotics, and anti-inflammatory activity” (Eur J Med Chem, 2017).
In brackets after ≈: the same amount, converted by molar mass. Activity calls are given as the source filed them. The rule behind the calls is not given here.

What was measured:
Enterococcus faecium = assay: Antibacterial activity against Vancomycin-resistant Enterococcus faecium ATCC 51559 after 24 hrs; type: functional; details: ATCC 51559, 24 h
Staphylococcus aureus [1] = assay: Antibacterial activity against Staphylococcus aureus KCTC 1621 assessed as cell membrane disruption at 2 times MIC within 4 mins by Sytox Green dye based fluorescence spectrophotometer assay; type: functional, organism-based
Staphylococcus aureus [2] = assay: Antibacterial activity against Staphylococcus aureus KCTC 1621 assessed as cytoplasmic membrane depolarization at 2 times MIC by disC3-5 dye based fluorescence assay; type: functional, organism-based

CC[C@H](C)[C@H](NC(=O)CN)C(=O)NCC(=O)N[C@@H](C)C(=O)N[C@H](C(=O)N[C@@H](CC(C)C)C(=O)N[C@@H](CCCCN)C(=O)N[C@H](C(=O)N[C@@H](CC(C)C)C(=O)N[C@H](C(=O)N[C@H](C(=O)NCC(=O)N[C@@H](CC(C)C)C(=O)N1CCC[C@H]1C(=O)N[C@@H](C)C(=O)N[C@@H](CC(C)C)C(=O)N[C@H](C(=O)N[C@@H](CO)C(=O)N[C@@H](Cc1c[nH]c2ccccc12)C(=O)N[C@H](C(=O)N[C@@H](CCCCN)C(=O)N[C@@H](CCCNC(=N)N)C(=O)N[C@@H](CCCCN)C(=O)N[C@@H](CCCNC(=N)N)C(=O)N[C@@H](CCC(N)=O)C(=O)N[C@@H](CCC(N)=O)C(N)=O)[C@@H](C)CC)[C@@H](C)CC)[C@@H](C)O)[C@@H](C)O)C(C)C)C(C)C [MELITTIN]
MIC (Enterococcus faecium): 16 µM (≈ 45.5 µg/mL)
Activity (Staphylococcus aureus [1]): Active
Activity (Staphylococcus aureus [2]): Active
